Experimental findings from ChEMBL document CHEMBL1201862, “PubChem BioAssay data set” (2004) are described below.

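Where inhibition never reached the appropriate level, the endpoint shown equals the highest concentration tested. Otherwise, values were interpolated linearly from a five-concentration, 48-hour dose response in 96-well plates. GI50 marks 50% less growth.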 The source made the active and inactive calls. Cut-off read from the data, not from the text of the source: active = GI50 up to about 1.1 µM and inactive = higher. Bounds are passed on as bounds.

Test systems include 786-0; IGROV-1; MCF7; MDA-MB-435; NCI-H23; NCI-H522; NCI/ADR-RES; OVCAR-3; OVCAR-4; RPMI-8226; RXF 393; SK-MEL-28; SK-MEL-5; SK-OV-3; SNB-19; SR; UACC-257; UACC-62; UO-31; OVCAR-5.
Test in all cases: NCI anticancer screen, dose series, 48 h

In the case of `O=C(OCCC12CC3CC(CC(C3)C1)C2)c1ccc(NCc2cc(O)ccc2O)cc1`, the GI50 in the assay with 786-0 is 1.28 µM (inactive); with IGROV-1 it was 0.0547 µM (active); in the assay with MCF7, 0.557 µM (active); in the assay with MDA-MB-435 it was 1.26 µM (inactive); with NCI-H23 it was 0.689 µM (active); in the assay with NCI-H522, 0.148 µM (active). In addition, the GI50 was 0.687 µM (active) with NCI/ADR-RES; 0.239 µM (active) with OVCAR-3; 0.904 µM (active) with OVCAR-4; 0.172 µM (active) with RPMI-8226; 0.638 µM (active) with RXF 393; 0.849 µM (active) in the assay with SK-MEL-28. For the same molecule, the GI50 with SK-MEL-5 is 1.12 µM (inactive); in the assay with SK-OV-3 it was 2.91 µM (inactive); in the assay with SNB-19, 1.26 µM (inactive); in the assay with SR, 0.404 µM (active); in the assay with UACC-257, 0.604 µM (active); in the assay on UACC-62, 1.61 µM (inactive). The GI50 in the assay with UO-31 was 0.376 µM (active).

With `Cc1sc2nc(-c3ccc(Cl)c([N+](=O)[O-])c3)c(/C=N/NC(=N)N)n2c1C`, the GI50 is 0.684 µM (active) in the assay with 786-0; 1.09 µM (active) with IGROV-1; 0.685 µM (active) with MCF7; 1.51 µM (inactive) in the assay with MDA-MB-435; 1.73 µM (inactive) in the assay on NCI-H23; 1.71 µM (inactive) in the assay on NCI-H522. In addition, the GI50 in the assay on NCI/ADR-RES was 2.04 µM (inactive); in the assay on OVCAR-3, 1.69 µM (inactive); in the assay with OVCAR-5, 1.58 µM (inactive); in the assay with RPMI-8226, 1.35 µM (inactive); in the assay on RXF 393, 1.52 µM (inactive); in the assay with SK-MEL-28 it was 0.973 µM (active). Moreover, the GI50 with SK-MEL-5 was 1.53 µM (inactive); in the assay with SK-OV-3 it was 1.75 µM (inactive); in the assay on SNB-19, 1.48 µM (inactive); with SR it was 0.229 µM (active); with UACC-257, 1.29 µM (inactive); in the assay with UACC-62, 1.79 µM (inactive). Moreover, the GI50 in the assay on UO-31 was 1.65 µM (inactive).

Take `COc1ccc(/N=C2\C(=N/c3ccc(OC)cc3)N(S(=O)(=O)c3ccccc3)C(=S)N2c2ccc(OC)cc2)cc1`: the GI50 in the assay with 786-0, with IGROV-1, with MCF7, in the assay on MDA-MB-435, in the assay with NCI-H23 and in the assay on NCI-H522 was > 100 µM (inactive) in each case. Further, the GI50 in the assay with NCI/ADR-RES was > 100 µM (inactive); with OVCAR-3, > 100 µM (inactive); with OVCAR-5, > 100 µM (inactive); in the assay on RPMI-8226, > 100 µM (inactive); in the assay on RXF 393, 46.2 µM (inactive); in the assay with SK-MEL-28 it was > 100 µM (inactive). The GI50 with SK-MEL-5 was 86.5 µM (inactive); with SK-OV-3 it was > 100 µM (inactive); in the assay with SNB-19, > 100 µM (inactive); in the assay on SR, > 100 µM (inactive); in the assay with UACC-62, > 100 µM (inactive); in the assay with UO-31 it was > 100 µM (inactive).

For `COc1ccc(C(=O)C(CC2C(=O)CC(C)(C)C(C(=O)C(=O)Nc3c(C)cccc3C)C2=O)c2ccc(OC)cc2)cc1` (stereo not given), the GI50 with 786-0, with IGROV-1, with MCF7, in the assay with MDA-MB-435, in the assay with NCI-H23 and in the assay on NCI-H522 was > 100 µM (inactive) throughout. For the same molecule, the GI50 in the assay with NCI/ADR-RES, with OVCAR-3, in the assay on OVCAR-4, in the assay on OVCAR-5, with RXF 393 and in the assay with SK-MEL-28 was > 100 µM (inactive) in each case. Besides, the GI50 is > 100 µM (inactive) in the assay on SK-MEL-5; > 100 µM (inactive) in the assay on SK-OV-3; > 100 µM (inactive) in the assay on SNB-19; 22.9 µM (inactive) in the assay on SR; > 100 µM (inactive) in the assay on UACC-257; > 100 µM (inactive) in the assay on UACC-62. Moreover, the GI50 in the assay on UO-31 was 70.1 µM (inactive).

As to `COc1ccc(/C=C2\CN(C)C/C(=C\c3ccc(OC)c(OC)c3OC)C2=O)c(OC)c1OC`, the GI50 in the assay on 786-0 is 0.0887 µM (active); in the assay with IGROV-1, 0.311 µM (active); in the assay on MCF7, 0.0507 µM (active); in the assay on MDA-MB-435, 0.0199 µM (active); with NCI-H23, 0.0579 µM (active); in the assay with NCI-H522 it was 0.184 µM (active). Further, the GI50 was 0.145 µM (active) in the assay with NCI/ADR-RES; 0.11 µM (active) in the assay on OVCAR-3; 0.253 µM (active) in the assay on OVCAR-4; 0.232 µM (active) in the assay with OVCAR-5; 0.0292 µM (active) in the assay with RPMI-8226; 0.167 µM (active) in the assay on RXF 393. Moreover, the GI50 with SK-MEL-28 was 0.147 µM (active); in the assay with SK-MEL-5 it was 0.259 µM (active); with SK-OV-3 it was 0.586 µM (active); in the assay with SNB-19, 0.237 µM (active); in the assay with SR, 0.0658 µM (active); in the assay on UACC-257 it was 0.249 µM (active). The GI50 in the assay on UACC-62 was 0.2 µM (active).

Take `C[C@]12CC[C@H]3[C@@H](CC=C4C[C@@H](N5CCCC5)CC[C@@]43C)[C@@H]1C/C(=C\c1ccc([N+](=O)[O-])cc1)[C@@H]2O`: the GI50 is 5.77 µM (inactive) in the assay with 786-0; 14.8 µM (inactive) in the assay on IGROV-1; 20.7 µM (inactive) in the assay with MCF7; 16.9 µM (inactive) in the assay with MDA-MB-435; 19.7 µM (inactive) in the assay with NCI-H23; 17.1 µM (inactive) in the assay on NCI-H522. Moreover, the GI50 in the assay on NCI/ADR-RES was 17.7 µM (inactive); in the assay on OVCAR-3, 17 µM (inactive); with OVCAR-4 it was 12.1 µM (inactive); in the assay with RPMI-8226 it was 16.1 µM (inactive); with RXF 393, 19.9 µM (inactive); in the assay with SK-MEL-28, 14.1 µM (inactive). The GI50 is 15 µM (inactive) with SK-MEL-5; 15.9 µM (inactive) with SK-OV-3; 24.7 µM (inactive) in the assay with SNB-19; 1.88 µM (inactive) in the assay on SR; 16.4 µM (inactive) with UACC-257; 15.8 µM (inactive) in the assay on UACC-62. Also, the GI50 with UO-31 was 15.1 µM (inactive).

With `Cc1nnc(-n2c(O)cc(=O)n(-c3ccccc3)c2=S)nc1/C=C/c1ccc(N(C)C)cc1`, the GI50 was 12.3 µM (inactive) in the assay with 786-0; 5.98 µM (inactive) with IGROV-1; 3.42 µM (inactive) in the assay with MCF7; 5.62 µM (inactive) with MDA-MB-435; 8.36 µM (inactive) in the assay with NCI-H23; 1.32 µM (inactive) in the assay on NCI-H522. Also, the GI50 with NCI/ADR-RES was 14.3 µM (inactive); in the assay on OVCAR-4 it was 11.4 µM (inactive); in the assay with OVCAR-5, 27.4 µM (inactive); in the assay with RPMI-8226 it was 11.2 µM (inactive); with RXF 393, 17.5 µM (inactive); with SK-MEL-28, 18.5 µM (inactive). In addition, the GI50 is 3.58 µM (inactive) in the assay with SK-MEL-5; 11.7 µM (inactive) in the assay on SK-OV-3; 20.4 µM (inactive) in the assay with SNB-19; 5.02 µM (inactive) with SR; 15.5 µM (inactive) with UACC-257; 6.53 µM (inactive) in the assay with UACC-62. Further, the GI50 in the assay on UO-31 is 4.11 µM (inactive).

As to `CC(C)N1[C@@H]2CCCC[C@H]2N(C(C)C)[PH]1=O`, the GI50 in the assay with 786-0, with MCF7, in the assay with MDA-MB-435, in the assay on NCI-H23, with NCI-H522 and with NCI/ADR-RES was > 100 µM (inactive) in each case. In addition, the GI50 in the assay with OVCAR-3, with OVCAR-5, in the assay on RPMI-8226, in the assay on RXF 393, with SK-MEL-5 and with SK-OV-3 was > 100 µM (inactive) each time. Further, the GI50 with SR, in the assay with UACC-257, in the assay with UACC-62 and with UO-31 was > 100 µM (inactive) throughout.

Consider `CC1Cn2c(nc3ccccc32)NC1=O` (stereo not given), for which the GI50 with 786-0, in the assay on IGROV-1, in the assay with MCF7, in the assay with MDA-MB-435, in the assay on NCI-H23 and in the assay on NCI-H522 was > 100 µM (inactive) throughout. For the same molecule, the GI50 in the assay on NCI/ADR-RES, in the assay on OVCAR-3, in the assay on OVCAR-4, with OVCAR-5, with RPMI-8226 and in the assay on RXF 393 was > 100 µM (inactive) each time. The GI50 with SK-MEL-5, in the assay with SK-OV-3, with SNB-19, in the assay on SR, in the assay with UACC-257 and in the assay with UACC-62 was > 100 µM (inactive) throughout. Moreover, the GI50 in the assay on UO-31 was > 100 µM (inactive).

`Nc1ccc2nc(-c3ccccn3)c(-c3ccccn3)nc2c1`: the GI50 with 786-0, in the assay on IGROV-1, with MCF7, in the assay with MDA-MB-435, in the assay with NCI-H522 and in the assay on NCI/ADR-RES was > 100 µM (inactive) throughout. For the same molecule, the GI50 in the assay with OVCAR-3, with OVCAR-4, in the assay with OVCAR-5, with RPMI-8226, in the assay on RXF 393 and in the assay with SK-MEL-28 was > 100 µM (inactive) in each case. Also, the GI50 in the assay on SK-MEL-5, with SNB-19, in the assay on SR, in the assay on UACC-257, in the assay on UACC-62 and in the assay on UO-31 was > 100 µM (inactive) each time.
